Source: publication PMC6010128, “Structure–activity relationship investigation of tertiary amine derivatives of cinnamic acid as acetylcholinesterase and butyrylcholinesterase inhibitors: compared with that of phenylpropionic acid, sorbic acid and hexanoic acid” (Journal of Enzyme Inhibition and Medicinal Chemistry, 2018)

Columns and labels:
AChE [1] = target: T1, AChE (Rattus norvegicus, UniProt P37136); test: biochemical; details: for Selectivity for AChE: IC50 (BChE)/IC50 (AChE); for IC50: rat brain AChE, Mean ± SD, triplicate
T1 sequence (P37136 32-614): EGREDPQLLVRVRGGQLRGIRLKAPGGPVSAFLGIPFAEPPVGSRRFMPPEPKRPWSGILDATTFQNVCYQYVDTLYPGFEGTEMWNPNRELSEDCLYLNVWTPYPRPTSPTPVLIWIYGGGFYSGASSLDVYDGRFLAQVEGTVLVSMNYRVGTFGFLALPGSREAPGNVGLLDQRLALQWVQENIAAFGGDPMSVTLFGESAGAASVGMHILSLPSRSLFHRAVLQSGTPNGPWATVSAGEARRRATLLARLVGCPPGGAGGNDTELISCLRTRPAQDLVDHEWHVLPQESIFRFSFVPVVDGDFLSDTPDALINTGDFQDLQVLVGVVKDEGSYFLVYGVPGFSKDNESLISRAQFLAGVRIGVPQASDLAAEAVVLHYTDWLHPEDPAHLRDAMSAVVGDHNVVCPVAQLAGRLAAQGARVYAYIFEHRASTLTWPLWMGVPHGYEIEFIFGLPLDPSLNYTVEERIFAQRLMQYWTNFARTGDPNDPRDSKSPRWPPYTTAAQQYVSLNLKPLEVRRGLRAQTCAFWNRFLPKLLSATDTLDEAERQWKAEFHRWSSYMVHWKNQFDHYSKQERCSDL

BChE = BChE (Rattus norvegicus, UniProt Q9JKC1); test: biochemical; set-up: species or system Sprague–Dawley rat; details: rat serum BChE, Mean ± SD, triplicate
BChE, sequence (Q9JKC1 24-597): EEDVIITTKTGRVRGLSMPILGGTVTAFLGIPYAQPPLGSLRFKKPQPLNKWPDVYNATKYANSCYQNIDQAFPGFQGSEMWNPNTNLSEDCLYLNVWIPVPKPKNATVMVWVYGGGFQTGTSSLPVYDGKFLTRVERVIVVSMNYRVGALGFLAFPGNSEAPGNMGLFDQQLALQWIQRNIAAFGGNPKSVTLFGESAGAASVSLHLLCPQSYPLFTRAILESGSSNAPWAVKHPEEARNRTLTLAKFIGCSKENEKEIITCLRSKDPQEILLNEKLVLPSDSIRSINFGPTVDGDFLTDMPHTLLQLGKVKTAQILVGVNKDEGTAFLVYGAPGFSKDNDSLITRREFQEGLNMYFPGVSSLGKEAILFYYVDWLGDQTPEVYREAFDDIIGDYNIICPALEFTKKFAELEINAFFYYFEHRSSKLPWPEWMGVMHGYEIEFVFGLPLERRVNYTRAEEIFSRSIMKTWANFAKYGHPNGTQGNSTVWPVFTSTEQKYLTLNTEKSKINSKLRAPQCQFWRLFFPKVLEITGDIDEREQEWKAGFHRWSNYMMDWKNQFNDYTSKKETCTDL

[2] = Log P by shake flask method; assay type: physicochemical; details: octanol / PBS pH = 7.4, shake flask
Procedure: Log P is defined as the logarithm of octanol–water partition coefficient. […] Ultraviolet spectrophotometry was applied to determine the concentration of compounds. Log p values were calculated based on the data in triplicate.

[3] = pKa by pH-titration method; assay type: physicochemical; details: read-out: pKa
Procedure: pKa is determined by pH-titration method according to the report. The titration curve E vs. VT was recorded and pKa value was calculated.

AChE [4] = target: T1, AChE; test: Kinetic study of AChE inhibition (Lineweaver–Burk); assay type: biochemical
Procedure: Kinetic characterization of AChE was performed by a reported method. Compound 6g was added into the assay solution and preincubated with the enzyme at 30 °C, followed by the addition of 100 μL acetylthiocholine iodide including five concentrations. The assay solution contained 100 μL compound 6g, 100 μL DTNB, 2.79 ml 0.1 mol/l Na2HPO4/NaH2PO4 buffer (pH 7.4). Kinetic profile of the hydrolysis of acetylthiocholine iodide catalyzed by AChE was determined by the UV–Vis spectrometry at 412 nm. The parallel control experiment was carried out without compound 6g in the mixture.
Compound 6g was selected for further kinetic study since it had the strongest inhibiting activity against AChE among new synthesized compounds.
Fig. 2 Lineaweaver–Burk plot for the inhibition of AChE by compound 6g
Table 2 Kinetic parameters of AChE inhibited by compound 6g
C Michaelis-Menten Km Vmax Ki Ki’
(µmol/L) equation (mmol/L) (ΔAmin-1) (µmol//L) (µmol/L)
(1 picture or pasted object on this page, not shown here)

| SMILES | Selectivity for AChE (AChE [1]) | IC50 (AChE [1]) | IC50 (BChE) | logP [2] | pKa [3] | Vmax (AChE [4]; AChE with 0.72 µmol/L compound 6g) | Vmax (AChE [4]; AChE with 1.43 µmol/L compound 6g) | Vmax (AChE [4]; AChE with 2.86 µmol/L compound 6g) | non-competitive constant (Ki′) (AChE [4]; AChE, acetylthiocholine iodide substrate) | Ki (AChE [4]; AChE, acetylthiocholine iodide substrate, read-out: competitive inhibit constant (Ki)) | type of inhibition against AChE (AChE [4]; Lineweaver–Burk analysis) |
| --- | --- | --- | --- | --- | --- | --- | --- | --- | --- | --- | --- |
| O=C(CCc1ccccc1)Nc1ccc(OCCN2CCCCC2)cc1 [Compound 12f] | 6.60 | 34.3 ± 0.89 µM | 226 ± 5.78 µM | 1.82 | 7.13 | – | – | – | – | – | – |
| CCCCCC(=O)Nc1ccc(OCCN(CC)CC)cc1 [Compound 24e] | <0.02 | > 500 µM | 9.9 ± 1.28 µM | 1.1 | 7.48 | – | – | – | – | – | – |
| O=C(CCc1ccccc1)Nc1ccc(OCCN2CCCC2)cc1 [Compound 12g] | – | 24.4 ± 0.76 µM | 98.5 ± 1.09 µM | 2.26 | 6.8 | – | – | – | – | – | – |
| C/C=C/C=C/C(=O)Nc1cccc(OCCN(C)C)c1 [Compound 17d] | 0.96 | 52.47 ± 0.39 µM | 50.43 ± 0.46 µM | 0.99 | 7.23 | – | – | – | – | – | – |
| CCCCCC(=O)Nc1cccc(OCCN(CC)CC)c1 [Compound 23e] | 0.01 | 125 ± 4.23 µM | 0.67 ± 0.04 µM | 0.93 | 7.15 | – | – | – | – | – | – |
| C/C=C/C=C/C(=O)Nc1cccc(OCCN(CC)CC)c1 [Compound 17e] | 0.81 | 98.7 ± 1.89 µM | 79.5 ± 1.43 µM | 1.72 | 7.58 | – | – | – | – | – | – |
| CN(C)CCOc1ccccc1NC(=O)CCc1ccccc1 [Compound 10d] | 0.13 | 285 ± 4.69 µM | 36.6 ± 1.38 µM | 2.14 | 7.19 | – | – | – | – | – | – |
| CCCCCC(=O)Nc1cccc(OCCN2CCCC2)c1 [Compound 23g] | 0.01 | 50.7 ± 2.66 µM | 0.34 ± 0.01 µM | 1.37 | 7.69 | – | – | – | – | – | – |
| CCCCCC(=O)Nc1ccc(OCCN2CCCC2)cc1 [Compound 24g] | 0.82 | 16.9 ± 0.91 µM | 13.9 ± 1.66 µM | 0.16 | 6.92 | – | – | – | – | – | – |
| CCCCCC(=O)Nc1ccc(OCCN(C)C)cc1 [Compound 24d] | 0.81 | 41.7 ± 2.89 µM | 33.8 ± 4.21 µM | 0.72 | 7.16 | – | – | – | – | – | – |
| O=C(CCc1ccccc1)Nc1cccc(OCCN2CCCC2)c1 [Compound 11g] | 1.43 | 58.6 ± 3.85 µM | 84 ± 2.12 µM | 2.58 | 6.45 | – | – | – | – | – | – |
| CN(C)CCOc1ccc(NC(=O)C=Cc2ccccc2)cc1 [Compound 6d] | 22.8 | 4.98 ± 0.31 µM | 113 ± 1.36 µM | 1.54 | 7.18 | – | – | – | – | – | – |
| O=C(C=Cc1ccccc1)Nc1ccc(OCCN2CCCC2)cc1 [Compound 6g] | 28.6 | 3.64 ± 0.28 µM | 104 ± 1.34 µM | 1.33 | 6.74 | 0.023 ΔAmin-1 | 0.021 ΔAmin-1 | 0.019 ΔAmin-1 | 2.14 µM | 7.27 µM | mixed-type inhibition |
